Target: T1, FLK-1 receptor (Mus musculus, UniProt P35918)
T1 construct: expressed in transfected cells; host or cells: NIH3T3 C7#3
Test: FLK-1 ELISA (kinase activity of the FLK-1 receptor in FLK-1/NIH3T3 cells, VEGF stimulated)
Format: cell-based
In short: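 An ELISA using affinity-purified rabbit anti-FLK-1 antiserum on anti-rabbit IgG-coated plates measured VEGF-stimulated FLK-1 kinase activity. NIH3T3 C7#3 cells carrying FLK-1 were serum-starved (0.1% FBS) overnight, then exposed to compound (final 1:200 dilution, 0.5% DMSO) for two hours at 37 °C.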

T1 sequence (P35918 20-1345): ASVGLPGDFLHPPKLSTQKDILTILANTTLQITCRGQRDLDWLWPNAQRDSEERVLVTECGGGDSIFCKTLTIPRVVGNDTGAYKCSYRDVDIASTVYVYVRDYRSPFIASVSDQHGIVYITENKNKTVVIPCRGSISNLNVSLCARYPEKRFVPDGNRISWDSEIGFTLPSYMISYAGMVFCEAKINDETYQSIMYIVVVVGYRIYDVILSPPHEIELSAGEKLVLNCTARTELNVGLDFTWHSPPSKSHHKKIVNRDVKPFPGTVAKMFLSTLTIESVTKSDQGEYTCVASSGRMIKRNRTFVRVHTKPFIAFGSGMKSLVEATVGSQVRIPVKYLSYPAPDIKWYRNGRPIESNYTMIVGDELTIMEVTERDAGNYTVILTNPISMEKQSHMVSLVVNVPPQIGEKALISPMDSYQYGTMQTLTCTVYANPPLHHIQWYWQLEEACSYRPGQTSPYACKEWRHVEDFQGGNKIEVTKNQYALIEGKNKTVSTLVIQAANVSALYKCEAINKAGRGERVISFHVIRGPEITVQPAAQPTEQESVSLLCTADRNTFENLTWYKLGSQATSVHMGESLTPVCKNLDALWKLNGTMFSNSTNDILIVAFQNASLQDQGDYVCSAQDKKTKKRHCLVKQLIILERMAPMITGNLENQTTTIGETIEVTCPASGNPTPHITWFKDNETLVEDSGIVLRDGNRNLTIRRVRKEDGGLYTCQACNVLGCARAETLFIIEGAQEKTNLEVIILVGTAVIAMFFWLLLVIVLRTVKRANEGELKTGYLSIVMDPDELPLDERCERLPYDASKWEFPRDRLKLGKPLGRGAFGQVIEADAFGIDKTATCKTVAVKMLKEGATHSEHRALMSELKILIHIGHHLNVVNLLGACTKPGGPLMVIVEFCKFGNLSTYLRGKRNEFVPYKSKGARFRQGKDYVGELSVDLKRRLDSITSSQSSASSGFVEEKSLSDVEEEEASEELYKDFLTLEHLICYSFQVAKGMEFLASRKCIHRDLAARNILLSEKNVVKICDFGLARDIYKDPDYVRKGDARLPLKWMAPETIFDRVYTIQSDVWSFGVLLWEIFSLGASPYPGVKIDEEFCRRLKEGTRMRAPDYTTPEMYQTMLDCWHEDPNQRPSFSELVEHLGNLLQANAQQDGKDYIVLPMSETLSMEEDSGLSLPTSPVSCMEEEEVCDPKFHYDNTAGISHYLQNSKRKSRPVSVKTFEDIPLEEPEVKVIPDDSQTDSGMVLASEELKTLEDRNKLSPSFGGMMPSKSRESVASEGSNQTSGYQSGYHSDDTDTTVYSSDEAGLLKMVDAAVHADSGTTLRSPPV

O=C1Nc2ccc(S(=O)(=O)Nc3ccc(C(F)(F)F)cc3)cc2C1=Cc1ccncc1 [10729/E09]
Fik Kinase %Inhibition: 6.9%
